What is called melting point is the temperature, or range, at which the solid turns liquid.

Entries after “also recorded” stand apart in the source; their conditions may differ. Like-named read-outs stand apart in the source and are kept apart here. Bounds are passed on as bounds.

Data on 24 compounds can be found in patent US9409904B2, “Compounds and compositions for use in augmentation of glucose” (YISSUM RESEARCH DEVELOPMENT COMPANY OF THE HEBREW …, priority 2011, dated 2016).

One data set has as its system L6 myotubes. Briefly: [3H]-2-deoxy-D-glucose (dGlc) uptake assay in L6 myotubes. Type of data set: cell-based. The conditions noted are these: for activity at 100 µM: Mean ± SD (n = 3), read-out: Effect on glucose uptake [100 μM] in L6 myotubes (%); for activity at 100 µM / rate of glucose uptake compared to vehicle (DMSO) treated control: 100 μM; for rate of glucose uptake compared to vehicle (DMSO) treated control: basal rate = 100%; for maximal effective concentration, glucose uptake: dose response, 5 h (3) or 12 h (4, 15). How it is done: The effect of the various derivatives on the rate of glucose uptake in L6 myotubes was investigated. […] The abundance of GLUT1 and GLUT4 in the plasma membranes of L6 myotubes was determined in cells expressing GLUT-1myc or GLUT-4myc, as described before. […] In addition, the effect of compounds on the glucose—stimulated insulin secretion (GSIS) was investigated.
L6 myotubes were maintained as described in [21]. All experiments were conducted on fully differentiated myotubes.
The rate of [^3H]dGlc uptake in myotubes, in the absence or presence of insulin, was determined as described in [21]. […] […] The cultures were then rinsed 3 times with PBS at room temperature and incubated with PBS, pH 7.4, containing 0.1 mM dGlc and 1.0 μCi/ml [^3H]dGlc for 5 minutes at room temperature. At the end of the assay, the myotubes were lysed in 0.1% (w/v) SDS in water and taken for liquid scintillation.

A further data set concerns AMPK. Briefly: Thr172 phosphorylation of AMPK in L6 myotubes, Western blot of whole cell lysates. The conditions noted are these: for Thr172 phosphorylation in AMPK / AMPK activation (result in words): L6 myotubes. Type of data set: cell-based. Here is the method:
The effect of the various derivatives on the rate of glucose uptake in L6 myotubes was investigated. […] The abundance of GLUT1 and GLUT4 in the plasma membranes of L6 myotubes was determined in cells expressing GLUT-1myc or GLUT-4myc, as described before. […] In addition, the effect of compounds on the glucose—stimulated insulin secretion (GSIS) was investigated. Whole cell lysates were prepared as previously described with some minor modifications: the lysis buffer contained 50 mM Tris-HCl, pH 7.5, 1 mM EDTA, 1 mM EGTA, 1 mM Na3VO4, 150 mM NaCl, 50 mM NaF, 10 mM sodium-glycerophosphate, 5 mM sodium pyrophosphate, and 1 mM PMSF, supplemented with 0.1% (v/v) NP-40, 0.1% (v/v) 2-β-mercaptoethanol, and protease inhibitor cocktail (1:100 dilution). The cells were washed by ice-cold PBS, and 1 ml of lysis buffer was then added and incubated at 4° C. for 40 minutes. The resulting cell lysates were centrifuged at 8,700 g×30 minutes at 4° C. and the resulting supernatant fractions were separated and kept at −20° C. until used. Protein content in the supernatant was determined according to Bradford, using a BSA standard dissolved in the same buffer. […] Samples for Western blot analyses of GLUT1 and GLUT4 were prepared as described in [22]. The proteins were separated on 10% SDS-PAGE and Western blot analyses performed using antibodies according to our previously established protocols.

The test system of a further data set is INS-1E cells. Briefly: Glucose-stimulated insulin secretion (GSIS) from INS-1E cells, insulin RIA. Type of data set: cell-based. How it is done:
INS-1E cells (passages 70-90) were grown and maintained as described in Merglen A et al. Endocrinology 2004, 145:667-678.
To investigate the glucose—stimulated insulin secretion (GSIS) and insulin radioimmunoassay-confluent cultures of INS-1E cells were pre-incubated for 30 min in KRBH-BSA buffer containing 3.3 mM glucose. This was followed by 1-h incubation at 3.3 and an additional 1-h at 16.7 mM glucose, as described (1). Aliquots from the incubation buffers were collected, cleared by centrifugation and frozen until used for insulin RIA. Total insulin content in β-cells was similarly measured in aliquots of cell extracts (1). RIA kits rat insulin (Linco Research, St. Charles, Mo.) was used according to manufacturers' protocols.

As to `Cn1cnnc1S` [Compound 7, 3-mercapto-4-methyl-4H-1,2,4-triazole], in the data set on L6 myotubes (Rattus norvegicus, L6, Table 1), the activity at 100 µM worked out at 107 ± 7.5%.

Regarding `Cn1ccnc1S` [Compound 9, 2-mercapto-1-methylimidazole], in the data set with L6 myotubes (Rattus norvegicus, L6, Table 1), the activity at 100 µM is 93 ± 9.5%.

`CCOc1ccc2nc(SCCC(=O)O)sc2c1` [Compound 25, 3-(6-ethoxybenzothiazol-2-ylthio)propanoic acid] came in with a melting point of 175 to 178 °C. The “rate of glucose uptake in L6 myotubes (result in words)” value (“rate of glucose uptake in L6 myotubes” for short) in the data set with L6 myotubes is on record as “increase”. Also, the “increase of glucose uptake in comparison with vehicle-treated cells” value in the data set with L6 myotubes (50 μM, within 5 hours of incubation) is 1.8 fold. Moreover, the “Thr172 phosphorylation in AMPK / AMPK activation (result in words)” value in the data set with AMPK is “activated AMPK”. Further, the “time of maximal (peak) Thr172 phosphorylation in AMPK” value in the data set on AMPK (incubation time) turned out to be 60 min.

As for `c1ccc2[nH]c(SSc3nc4ccccc4[nH]3)nc2c1` [Compound 32, 1,2-di(1H-benziimidazol-2-yl)disulfane], the “rate of glucose uptake in L6 myotubes” value in the data set on L6 myotubes is listed as “no stimulatory effect”.

Turning to `SC1=NCCS1` [Compound 11, 2-mercapto-2-thiazoline], the activity at 100 µM with L6 myotubes (Rattus norvegicus, L6, Table 1) is 106 ± 6.8%.

On to `CCCNC(=O)CSc1nc2ccc(OCC)cc2s1` [Compound 33, 2-((6-ethoxybenzothiazol-2-yl)thio)-N-propylacetamide], for which the “rate of glucose uptake in L6 myotubes” value in the data set on L6 myotubes was “increase; also recorded: markedly augmented”. Further, the “increase of rate of glucose uptake” value with L6 myotubes (100 μM within 5 hours of incubation) came to 2 fold. Besides, the “time to significant Thr172 phosphorylation of AMPK” value in the data set on AMPK (incubation time) was found to be 5 h.

Consider `Nc1ncc([N+](=O)[O-])s1` [Compound 12, 2-amino-5-nitrothiazole], for which, in the data set on L6 myotubes (Rattus norvegicus, L6, Table 1), the activity at 100 µM is 95.1 ± 8.9%.

As to `CCOc1ccc2nc(N)sc2c1` [Compound 14, 6-ethoxybenzothiazol-2-amine], the activity at 100 µM in the data set on L6 myotubes (Rattus norvegicus, L6, Table 2) stood at 111 ± 14.2%.

In turn, `CCOc1ccc2nc(SSc3nc4ccc(OCC)cc4s3)sc2c1` [Compound 31, 1,2-bis(6-ethoxybenzothiazol-2-yl)disulfane] showed a melting point of 185 to 190 °C. Besides, the “rate of glucose uptake in L6 myotubes” value in the data set on L6 myotubes is reported as “increase; also recorded: substantially increased”. In addition, the Emax in the data set with L6 myotubes (Rattus norvegicus, L6, 150 μM within 5 hours of incubation, read-out: maximal effect on rate of glucose uptake, compared with a non-treated control) amounted to 189 ± 21.8%. Besides, the “rate of glucose uptake in L6 myotubes” value with L6 myotubes (listed as EMM-5) is “increases”. Moreover, in the data set with AMPK (incubation time), the “persistence of Thr172 phosphorylation of AMPK” value is “up to 5 hours” and the “time to induction of Thr172 phosphorylation in AMPK” value was at most 40 min. In addition, the “glucose-stimulated insulin secretion from INS-1E cells (result in words)” value in the data set on INS-1E cells is given as “increases”.

For `Cc1nnc(N)s1` [Compound 6, 2-amino-5-methyl-1,3,4-thiadiazole], the activity at 100 µM in the data set with L6 myotubes (Rattus norvegicus, L6, Table 1) came to 101 ± 5.5%.

On to `c1ccc2[nH]nnc2c1` [Compound 17, 1H-benzotriazole], for which the activity at 100 µM in the data set on L6 myotubes (Rattus norvegicus, L6, Table 2) was 87.5 ± 11.4%.

As to `Sc1ncccn1` [Compound 8, 2-mercaptopyrimidine], the activity at 100 µM in the data set with L6 myotubes (Rattus norvegicus, L6, Table 1) came out at 100 ± 4.9%.

Take `Oc1ccc2nc(S)sc2c1` [Compound 19, 2-mercaptobenzothiazol-6-ol]: the “rate of glucose uptake in L6 myotubes” value with L6 myotubes is given as “did not stimulate”.

`CCCSc1nc2ccc(O)cc2s1` [Compound 20, 2-(propylthio)benzothiazol-6-ol] showed a melting point of 67 to 70 °C. The “rate of glucose uptake in L6 myotubes” value in the data set with L6 myotubes was “increase”. The “rate of glucose uptake in L6 myotubes” value in the data set on L6 myotubes (listed as EMM-45) is on record as “increases; also recorded: induced an increase; also recorded: induces stimulation”. In the data set with INS-1E cells, the “glucose-stimulated insulin secretion from INS-1E cells (result in words)” value is on record as “augments”. The “glucose stimulated insulin secretion in INS-1E” value in the data set with INS-1E cells (10 μM, indicated time periods) is “increased”. In addition, in the data set on INS-1E cells (25 μM), the glucose-stimulated insulin secretion result is on record as “increased”.

As for `Nc1nccs1` [Compound 10, 2-aminothiazole], in the data set on L6 myotubes (Rattus norvegicus, L6, Table 1), the activity at 100 µM was determined as 95.7 ± 5.1%.

For `Nc1nncs1` [Compound 5, 2-amino-1,3,4-thiadiazole], in the data set on L6 myotubes (Rattus norvegicus, L6, Table 1), the activity at 100 µM is 97.4 ± 2.9%.

Regarding `NC1=NC(=O)/C(=C\C=C\c2ccc([N+](=O)[O-])o2)S1` [Compound 2, (E)-2-Amino-5-((E)-3-(5-nitrofuran-2-yl)allylidene)thiazol-4(5H)-one], the “rate of glucose uptake in L6 myotubes” value with L6 myotubes is given as “slightly increased”. Further, the “concentrations at which effects on glucose uptake and Thr172 phosphorylation were observed” value in the data set on L6 myotubes (L6 myotubes, data not shown) is on record as “above 500 μM”. Besides, the “Thr172 phosphorylation in AMPK / AMPK activation (result in words)” value with AMPK is on record as “marginally induced”.

As to `c1ccc2scnc2c1` [Compound 13, benzothiazole], in the data set with L6 myotubes (Rattus norvegicus, L6, Table 2), the activity at 100 µM came out at 117 ± 9.7%.

On to `CCCCSc1nc2ccc(O)cc2s1` [Compound 23, 2-(butylthio)benzothiazol-6-ol], for which the melting point fell in the range of 80 to 85 °C.

Regarding `CCOc1ccc2nc(S)sc2c1` [Compound 4, 6-ethoxybenzo[d]thiazole-2-thiol], in the data set with L6 myotubes, the “persistence of stimulatory effect on glucose uptake” value worked out at 24 h; the “rate of glucose uptake in L6 myotubes” value is “increase”; the “rate of glucose uptake compared to vehicle (DMSO) treated control” value is 172.4%±12.4%; the “maximal effective concentration, glucose uptake” value stood at 100 µM. In addition, the activity at 100 µM in the data set with L6 myotubes (Rattus norvegicus, L6, Table 2) is 172 ± 12.4%. Moreover, the “Thr172 phosphorylation in AMPK / AMPK activation (result in words)” value in the data set on AMPK is on record as “significantly induced”.

As for `c1cnc2[nH]nnc2c1` [Compound 16, 1H-1,2,3-triazolo[4,5]pyridine], the activity at 100 µM in the data set with L6 myotubes (Rattus norvegicus, L6, Table 2) stood at 86.7 ± 17.9%.

On to `Oc1nc2ccc(Br)cc2s1` [Compound 15, 6-bromo-2-benzothiazolinone], for which, in the data set with L6 myotubes, the “persistence of stimulatory effect on glucose uptake” value is 24 h; the “rate of glucose uptake in L6 myotubes” value was “increase”; the “rate of glucose uptake compared to vehicle (DMSO) treated control” value was 132.9%±13.8%; the “maximal effective concentration, glucose uptake” value was 100 µM. In addition, the activity at 100 µM in the data set with L6 myotubes (Rattus norvegicus, L6, Table 2) came out at 133 ± 13.8%. For the same compound, the “Thr172 phosphorylation in AMPK / AMPK activation (result in words)” value in the data set with AMPK is “significantly induced”.

Take `CCOc1ccc2nc(S(N)(=O)=O)sc2c1` [Compound 30, 6-ethoxybenzothiazole-2-sulfonamide]: the “rate of glucose uptake in L6 myotubes” value in the data set on L6 myotubes was “inactive”.

Turning to `CCC(CC)CSc1nc2ccc(O)cc2s1` [Compound 21, 2-(2-ethylbutylthio)benzothiazol-6-ol], the melting point lay within 105 to 110 °C.
